Where “and” joins values, the source holds several entries; their conditions need not be identical. Equal entries are not always repeated. Where two headings read alike, the source gives them in different places.
Experiments:
ADR1D = molecular target: T1, ADR1D (Homo sapiens, UniProt P25100); assay: Binding assay ADR1D; conditions: 100 nM
T1 construct: Eurofins Cerep (external service)
T1 sequence (P25100 1-572): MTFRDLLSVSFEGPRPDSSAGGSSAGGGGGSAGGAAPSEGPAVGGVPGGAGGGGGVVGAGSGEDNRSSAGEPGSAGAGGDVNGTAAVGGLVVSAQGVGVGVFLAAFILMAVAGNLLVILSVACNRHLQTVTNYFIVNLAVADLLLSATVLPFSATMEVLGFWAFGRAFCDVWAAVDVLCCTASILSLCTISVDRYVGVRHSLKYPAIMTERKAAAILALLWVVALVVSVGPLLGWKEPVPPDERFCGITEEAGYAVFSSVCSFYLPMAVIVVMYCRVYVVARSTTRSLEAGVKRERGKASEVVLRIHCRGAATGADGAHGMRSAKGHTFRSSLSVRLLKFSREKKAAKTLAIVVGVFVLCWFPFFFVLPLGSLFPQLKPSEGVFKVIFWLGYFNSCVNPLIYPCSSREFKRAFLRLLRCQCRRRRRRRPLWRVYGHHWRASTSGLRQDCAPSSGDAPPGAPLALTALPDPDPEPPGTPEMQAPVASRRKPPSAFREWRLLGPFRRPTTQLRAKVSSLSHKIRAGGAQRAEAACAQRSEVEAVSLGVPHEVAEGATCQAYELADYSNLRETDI

CXCR4 = CXCR4 (Homo sapiens, UniProt P61073); assay: Cellular functional assay CXCR4
CCR7 = molecular target: T2, CCR7 (Homo sapiens, UniProt P32248); assay: Cellular functional assay CCR7
T2 sequence (P32248 25-378): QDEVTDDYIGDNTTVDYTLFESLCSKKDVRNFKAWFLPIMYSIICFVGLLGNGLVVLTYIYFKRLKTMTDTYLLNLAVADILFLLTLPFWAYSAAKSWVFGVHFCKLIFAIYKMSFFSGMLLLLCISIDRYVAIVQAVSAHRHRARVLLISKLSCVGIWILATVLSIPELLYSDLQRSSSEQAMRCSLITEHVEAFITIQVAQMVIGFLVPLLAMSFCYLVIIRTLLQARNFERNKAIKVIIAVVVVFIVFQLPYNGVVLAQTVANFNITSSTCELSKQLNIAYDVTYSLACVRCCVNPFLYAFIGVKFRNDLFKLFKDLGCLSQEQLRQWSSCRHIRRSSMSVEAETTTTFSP

ADR1A = molecular target: T3, ADR1A (Homo sapiens, UniProt P35348); assay: Binding assay ADR1A; conditions: 100 nM
T3 construct: Eurofins Cerep (external service)
T3 sequence (P35348 1-466): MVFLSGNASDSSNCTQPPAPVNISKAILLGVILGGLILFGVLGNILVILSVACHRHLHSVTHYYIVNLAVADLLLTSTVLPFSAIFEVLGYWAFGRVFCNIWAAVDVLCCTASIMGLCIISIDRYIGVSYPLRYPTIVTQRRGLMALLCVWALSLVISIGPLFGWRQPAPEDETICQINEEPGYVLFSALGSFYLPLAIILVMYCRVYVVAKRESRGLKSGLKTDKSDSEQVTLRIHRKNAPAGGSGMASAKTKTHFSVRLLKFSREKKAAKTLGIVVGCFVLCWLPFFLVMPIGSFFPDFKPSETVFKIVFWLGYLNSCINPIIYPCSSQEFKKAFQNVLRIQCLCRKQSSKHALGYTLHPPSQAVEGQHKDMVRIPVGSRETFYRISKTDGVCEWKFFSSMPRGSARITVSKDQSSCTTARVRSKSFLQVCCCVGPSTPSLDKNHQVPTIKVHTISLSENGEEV

ADR2C = molecular target: T4, ADR2C (Homo sapiens, UniProt P18825); assay: Binding assay ADR2C; conditions: 100 nM
T4 construct: Eurofins Cerep (external service)
T4 sequence (P18825 1-462): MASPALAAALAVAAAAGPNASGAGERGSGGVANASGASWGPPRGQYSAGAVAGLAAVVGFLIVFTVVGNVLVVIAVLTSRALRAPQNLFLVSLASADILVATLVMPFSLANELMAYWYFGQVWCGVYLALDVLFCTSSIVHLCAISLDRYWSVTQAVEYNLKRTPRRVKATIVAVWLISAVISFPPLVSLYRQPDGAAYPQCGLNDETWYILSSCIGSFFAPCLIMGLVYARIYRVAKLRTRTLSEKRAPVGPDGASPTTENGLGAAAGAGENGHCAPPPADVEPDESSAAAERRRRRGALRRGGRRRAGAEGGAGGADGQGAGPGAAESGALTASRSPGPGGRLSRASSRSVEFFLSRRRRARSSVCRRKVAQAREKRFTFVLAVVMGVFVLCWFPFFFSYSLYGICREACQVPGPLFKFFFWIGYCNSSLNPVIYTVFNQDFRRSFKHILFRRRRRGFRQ

[1] = Single dose time course study in plasma and brain, 10 mg/kg subcutaneous; type: in vivo, mouse; conditions: 10 mg/kg s.c. single dose, C57BL/6 male mice
Method: Afterwards, the presence of the top compound in the brain was assessed in a single dose time course study consisting of a subcutaneous administration of a 10 mg/kg dose (15% Ethanol, 85% PEG400) to 24 naïve C57BL/6 male mice. Eight time-points (n = 3/time-point) were drawn over 24 hours after dosing. Each animal was sampled for blood collection at two time-points (the first via a tail vein, the second via cardiac puncture under anaesthesia). Blood samples were collected and centrifuged to prepare plasma according to standard procedures and stored at approximately -20°C, pending analysis (n = 48 samples). The brain of each animal was collected at sacrifice and analysed alongside plasma samples for compound quantification (n = 24 samples). Plasma and brain homogenate samples were analysed for test compound quantification using an optimised method based on protein precipitation followed by HPLC-MS/MS analysis. The results for test substance in plasma and brain homogenates were subjected to non-compartmental PK analysis using WinNonlin Phoenix v.6.3 for generation of appropriate pharmacokinetic parameters to be reported along with graphical representation of the mean plasma concentration profiles over time.

[2] = mean of 2, read-out: % Of control specific binding, Mean
[3] = read-out: % Inhibition of control specific binding
[4] = single replicates 1 and 2, 0.1 µM
[5] = antagonist effect, 100 nM, single replicates 1st and 2nd, 0.1 µM
[6] = read-out: % Inhibition of control agonist response
[7] = read-out: Agonist Response (% of Control), Mean, antagonist effect, 100 nM, mean of 2
[8] = read-out: Agonist Response (% of Control), antagonist effect, 100 nM, single replicates 1st and 2nd
[9] = single replicates 1 and 2, read-out: % Of control specific binding

CXCR4, sequence (P61073 whole entry): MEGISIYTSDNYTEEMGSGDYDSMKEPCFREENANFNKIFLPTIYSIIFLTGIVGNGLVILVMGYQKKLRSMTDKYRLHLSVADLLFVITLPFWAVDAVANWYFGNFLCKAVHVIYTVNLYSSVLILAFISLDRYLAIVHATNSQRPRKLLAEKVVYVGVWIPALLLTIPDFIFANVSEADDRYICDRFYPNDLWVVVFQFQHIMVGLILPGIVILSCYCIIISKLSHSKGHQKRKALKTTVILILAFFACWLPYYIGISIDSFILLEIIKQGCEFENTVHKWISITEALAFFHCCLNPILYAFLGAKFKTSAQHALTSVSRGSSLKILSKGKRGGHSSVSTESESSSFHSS

Cc1ccc(-c2nnc(SCC(=O)Nc3nccs3)[nH]2)cc1 [Compound 9]
remaining activity at 0.1 µM (ADR1D; [2]): 101% | inhibition at 0.1 µM (ADR1D; [3]): -1% | % Of control specific binding (ADR1D; [4]): 90.2% and 111.5% | Agonist Response (% of Control) (CXCR4; [5]): 70.8% | inhibition at 0.1 µM (CXCR4; [6]): 4.4% | activity at 0.1 µM (CXCR4; [7]): 78.2% | activity at 0.1 µM (CXCR4; [8]): 85.6% | Agonist Response (% of Control) (CCR7; [5]): 122.8% | inhibition at 0.1 µM (CCR7; [6]): -1.8% | activity at 0.1 µM (CCR7; [7]): 127% | activity at 0.1 µM (CCR7; [8]): 131% | remaining activity at 0.1 µM (ADR1A; [2]): 112% | % Of control specific binding (ADR1A; [4]): 108.1% | remaining activity at 0.1 µM (ADR1A; [9]): 117% | remaining activity at 0.1 µM (ADR2C; [2]): 109% | inhibition at 0.1 µM (ADR2C; [3]): -9% | % Of control specific binding (ADR2C; [4]): 108.4% | remaining activity at 0.1 µM (ADR2C; [9]): 109% | Tlast ([1]; brain): 6.00 h | AUC(0-t) ([1]; mouse, sc, brain): 0.205 µg·h/mL | Cmax ([1]; mouse, sc, brain): 0.27 µg/mL | Tmax ([1]; mouse, sc, brain): 15 min | concentration at 6 h ([1]; mouse, sc, brain, read-out: Clast): 0.0058 µg/mL | AUC(0-t) ([1]; mouse, sc, plasma): 3.93 µg·h/mL | Cmax ([1]; mouse, sc, plasma): 6.52 µg/mL | Tmax ([1]; mouse, sc, plasma): 15 min | concentration at 8 h ([1]; mouse, sc, plasma, read-out: Clast): 0.0174 µg/mL | Tlast ([1]; plasma): 8.00 h

Source: article PMC7176092, “Development of the first in vivo GPR17 ligand through an iterative drug discovery pipeline: A novel disease-modifying strategy for multiple sclerosis” (PLoS ONE, 2020)
